Measurements reported in patent publication US9840481B2, “Allosteric modulators of nicotinic acetylcholine receptors” (MERCK SHARP & DOHME CORP., priority 2016, dated 2017).
Where two headings read alike, the source gives them in different places.

Target: T1, human α7 nAChR stably expressed in a HEK cell line (with human RIC-3) (Homo sapiens, UniProt P36544)
T1 construct: PrecisION hnAChR α7/RIC-3
Test: Automated patch-clamp electrophysiology functional assay (Assay A), IonFlux HT, whole-cell population patch
Assay type: cell-based
Method: The α7 nAChR positive allosteric modulator (PAM) activity of the present compounds may be tested using assays known in the art. The α7 nAChR PAMs described herein have activities in an automated patch-clamp electrophysiology functional assay as described in the examples. The assay was performed using the IonFlux HT in a whole-cell, population patch configuration. See Golden et al. Assay Drug Dev. Technol. (2011) 9:608-619. The compounds were assessed for their ability to modulate the function of the human α7 nAChR stably expressed in a HEK cell line both in the presence, and in the absence of the natural α7 agonist acetylcholine. By performing a series of such measurements at different concentrations, the effective concentration of the α7 nAChR PAMs (EC50) was determined. See Spencer et al. Assay Drug Dev. Technol. (2012) 10:313-324.
Direct activation of α7 (agonism), and potentiation of 5 acetylcholine-evoked α7 currents was determined as follows:
Automated Patch-Clamp Electrophysiology Functional Assay (Assay A)
Automated patch-clamp electrophysiology was performed using the IonFlux HT (Fluxion Biosciences Inc., San Francisco, Calif.) in the whole-cell, population patch configuration. Test compounds were assessed for their ability to modulate the function of the α7 nicotinic acetylcholine receptor both in the presence, and in the absence of the natural α7 agonist acetylcholine. A HEK cell line stably expressing both human RIC-3 and human α7 (PrecisION hnAChR α7/RIC-3, Eurofins Pharma, St. Charles, Mo.) was cultured in 175 cm^2 triple-layer tissue culture flasks to no more than 90% confluency in DMEM/F-12 growth media supplemented with 10% heat-inactivated fetal bovine serum, 1% non-essential amino acids, 0.625 μg/mL Puromycin, and 400 μg/mL Geneticin. Immediately prior to assay, cells were detached by first aspirating growth media, rinsing with Dulbecco's phosphate buffered saline, and then adding 10 mL of Accutase (Innovative Cell Technologies, San Diego, Calif.) to the flask and then incubating at 37° C. for 5 minutes. Detached cells were then recovered by the addition of 40 mL of CHO-serum-free media supplemented with 25 mM HEPES, and rocked gently in a 50 mL conical tube for 20 minutes prior to patch-clamp assay. After recovery, cells were pelleted by centrifugation at 1,000 RPM for 1 minute in a compact bench top centrifuge; recovery media was aspirated and cells were resuspended in external recording solution (150 mM NaCl, 5 mM KCl, 2 mM CaCl2, 1 mM MgCl2, 10 mM HEPES, 12 mM dextrose) to a density of 5.0×10^6 cells/mL. The cell suspension was added to the cell inlet wells on an IonFlux HT population patch plate which had previously been rinsed and primed with deionized H2O. Test compounds were serially diluted in DMSO and then resuspended to the final test concentration in external recording solution, with, or without […] acetylcholine added to the external recording solution; test compounds were then transferred to the IonFlux HT population patch plate. Internal recording solution (110 mM TrisPO4, 28 mM TrisBase, 0.1 mM CaCl2, 2 mM MgCl2, 11 mM EGTA, 4 mM MgATP) was added to the internal recording solution inlet wells on the IonFlux HT patch plate previously loaded with cells and test compounds, and the plate loaded into the IonFlux HT instrument. A protocol was executed on the IonFlux HT to trap the cells, break into the cells, and establish the whole-cell recording configuration; cells were voltage-clamped at a holding potential of −60 mV for the duration of the experiment, all experiments were conducted at room temperature, and the IonFlux HT injection pressure was 8 psi for solution applications. Upon establishing the whole-cell configuration, external recording solution was perfused into the recording chambers for 120 seconds and then 40 μM acetylcholine was applied for 1 second and immediately washed off with external recording solution for 60 seconds. […]

[1] = automated patch-clamp electrophysiology functional assay (Assay A), potency class by EC50, read-out: α7 nAChR Potency
[2] = electrophysiology EC50, HEK cells expressing human α7/RIC-3, 40 μM acetylcholine, holding potential −60 mV, room temperature, read-out: α7 nAChR EC50

T1 sequence (P36544 23-502): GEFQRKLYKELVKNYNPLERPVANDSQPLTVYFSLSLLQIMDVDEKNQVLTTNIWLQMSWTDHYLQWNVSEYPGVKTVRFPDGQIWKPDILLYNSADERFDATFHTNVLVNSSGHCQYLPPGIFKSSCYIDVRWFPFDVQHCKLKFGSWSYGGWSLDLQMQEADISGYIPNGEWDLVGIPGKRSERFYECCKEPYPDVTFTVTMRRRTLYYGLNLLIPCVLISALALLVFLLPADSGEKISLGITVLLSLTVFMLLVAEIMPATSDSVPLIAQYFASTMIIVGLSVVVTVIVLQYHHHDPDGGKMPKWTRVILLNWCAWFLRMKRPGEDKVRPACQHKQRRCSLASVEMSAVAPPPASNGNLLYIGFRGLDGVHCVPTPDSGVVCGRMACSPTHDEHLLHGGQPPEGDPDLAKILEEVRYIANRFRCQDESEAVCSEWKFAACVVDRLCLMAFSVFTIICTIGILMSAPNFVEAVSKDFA

| Structure (SMILES) | EC50 [1] [µM] | EC50 [2] [µM] |
| --- | --- | --- |
| CC1(C)[C@@H](c2ccc(S(N)(=O)=O)cc2)[C@@H]1c1ncc(-c2ccccc2)s1 [Example 17, 4-[(1S,3S)-2,2-Dimethyl-3-(5-phenyl-1,3-thiazol-2-yl)cyclopropyl]benzenesulfonamide] | 0.5 to 5 | 2 |
| COc1ccc(Cl)cc1-c1noc([C@@H]2C[C@H]2c2ccc(S(N)(=O)=O)cc2)n1 [Example 19, 4-{(1R,2R)-2-[3-(5-Chloro-2-methoxyphenyl)-1,2,4-oxadiazol-5-yl]cyclopropyl}benzenesulfonamide] | 0.5 to 5 | 0.78 |
| CC1(C)[C@H](c2ccc(S(N)(=O)=O)cc2)[C@H]1c1nc(C2CCCCC2)no1 [Example 20, 4-((1R,3R)-3-(3-Cyclohexyl-1,2,4-oxadiazol-5-yl)-2,2-dimethylcyclopropyl)benzenesulfonamide] | 0.5 to 5 | 0.66 |
| CC(C)c1cnc([C@H]2[C@H](c3ccc(S(N)(=O)=O)cc3)C2(C)C)s1 [Example 21, 4-{(1S,3S)-2,2-Dimethyl-3-[5-(propan-2-yl)-1,3-thiazol-2-yl]cyclopropyl}benzenesulfonamide] | 0.1 to 0.5 | 0.39 |
| NS(=O)(=O)c1ccc([C@@H]2C[C@H]2c2ccn(Cc3cccc(F)c3)n2)cc1 [Example 23, 4-{(1R,2R)-2-[1-(3-Fluorobenzyl)-1H-pyrazol-3-yl]cyclopropyl}benzenesulfonamide] | 0.1 to 0.5 | 0.46 |
| NS(=O)(=O)c1ccc(C2CC2c2coc(-c3ccccc3)n2)cc1 (stereo not drawn) [Example 24, 4-[trans-2-(2-Phenyl-1,3-oxazol-4-yl)cyclopropyl]benzenesulfonamide] | 0.5 to 5 | 2.4 |
| NS(=O)(=O)c1ccc([C@@H]2C[C@H]2c2csc(-c3ccccc3)n2)cc1 [Example 25, 4-[(1R,2R)-2-(2-Phenyl-1,3-thiazol-4-yl)cyclopropyl]benzenesulfonamide] | 0.5 to 5 | 0.98 |
| NS(=O)(=O)c1ccc([C@@H]2C[C@H]2c2cn(-c3cccc(F)c3)nn2)cc1 [Example 26, 4-{(1R,2R)-2-[1-(3-Fluorophenyl)-1H-1,2,3-triazol-4-yl]cyclopropyl}benzenesulfonamide] | 0.5 to 5 | 1.6 |
| NS(=O)(=O)c1ccc([C@@H]2C[C@H]2c2cnc(-c3ccccc3)s2)cc1 [Example 27, 4-[(1R,2R)-2-(2-Phenyl-1,3-thiazol-5-yl)cyclopropyl]benzenesulfonamide] | 0.5 to 5 | 0.62 |
| NS(=O)(=O)c1ccc([C@@H]2C[C@H]2c2cnc(C3CCCCC3)o2)cc1 [Example 28, 4-[(1R,2R)-2-(2-Cyclohexyl-1,3-oxazol-5-yl)cyclopropyl]benzenesulfonamide] | 0.1 to 0.5 | 0.46 |
| NS(=O)(=O)c1ccc([C@@H]2C[C@H]2c2nsc(N3CCCCC3)n2)cc1 [Example 29, 4-{(1R,2R)-2-[5-(Piperidin-1-yl)-1,2,4-thiadiazol-3-yl]cyclopropyl}benzenesulfonamide] | 0.1 to 0.5 | 0.14 |
| CC1(C)C(c2ccc(OS(N)(=O)=O)cc2)C1c1nc(-c2ccccc2)no1 (stereo not drawn) [Example 30, 4-[trans-2,2-Dimethyl-3-(3-phenyl-1,2,4-oxadiazol-5-yl)cyclopropyl]phenyl sulfamate] | 0.5 to 5 | 1.4 |
| CC1(C)[C@H](c2ccc(S(N)(=O)=O)cc2)[C@H]1c1nc(C2CC2)c(C2CC2)o1 [Example 31, 4-[(1R,3R)-3-(4,5-Dicyclopropyl-1,3-oxazol-2-yl)-2,2-dimethylcyclopropyl]benzenesulfonamide] | 0.5 to 5 | 2.4 |
| CC1(C)C(c2ccc(S(N)(=O)=O)cc2)C1c1cc(C2CCCC2)on1 (stereo not drawn) [Example 34, 4-(trans-3-(5-Cyclopentylisoxazol-3-yl)-2,2-dimethylcyclopropyl)benzenesulfonamide] | 0.1 to 0.5 | 0.16 |
| Cn1cc([C@H]2[C@H](c3ccc(S(N)(=O)=O)cc3)C2(C)C)nc1-c1cccc(F)c1 [Example 35, 4-{(1S,3S)-3-[2-(3-Fluorophenyl)-1-methyl-1H-imidazol-4-yl]-2,2-dimethylcyclopropyl}benzenesulfonamide] | 0.5 to 5 | 4.4 |
| NS(=O)(=O)c1ccc([C@@H]2C[C@H]2c2noc(N3CCCCC3)n2)cc1 [Example 37, 4-{(1R,2R)-2-[5-(Piperidin-1-yl)-1,2,4-oxadiazol-3-yl]cyclopropyl}benzenesulfonamide] | 0.1 to 0.5 | 0.24 |

Second part, the molecule after the results:

| EC50 [1] [µM] | EC50 [2] [µM] | Structure (SMILES) |
| --- | --- | --- |
| 0.5 to 5 | 2.9 | COc1ccc(Cl)cc1-c1noc([C@@H]2[C@@H](c3ccc(S(N)(=O)=O)cc3)C2(C)C)n1 [Example A1] |
| 0.5 to 5 |  | CC1(C)[C@H](c2ccc(S(N)(=O)=O)cc2)[C@H]1c1nc(-c2ccccc2)no1 [Example A3] |
| 0.5 to 5 | 4.8 | CC(C)Oc1ccc(Cl)cc1-c1noc([C@@H]2[C@@H](c3ccc(S(N)(=O)=O)cc3)C2(C)C)n1 [Example A4] |
| 5 to 50 | 7.3 | NS(=O)(=O)c1ccc([C@H]2C[C@@H]2c2nc(-c3ccccc3)no2)cc1 [Example A5] |
| 0.5 to 5 | 1.3 | CC1(C)[C@H](c2ccc(S(N)(=O)=O)cc2)[C@H]1c1nc(-c2ccc(F)cc2F)no1 [Example A7] |
| 5 to 50 |  | NS(=O)(=O)c1ccc([C@H]2C[C@@H]2c2nc(-c3ccc(F)cc3F)no2)cc1 [Example A8] |
| 0.5 to 5 |  | NS(=O)(=O)c1ccc([C@@H]2[C@@H](c3nc(-c4ccccc4)no3)C2(F)F)cc1 [Example A9] |
| 0.5 to 5 | 1.1 | CC1(C)[C@H](c2ccc(S(N)(=O)=O)cc2)[C@H]1c1nc(-c2cccc(F)c2)no1 [Example A10] |
| 0.5 to 5 | 0.96 | CC1(C)[C@H](c2ccc(S(N)(=O)=O)cc2)[C@H]1c1nc(-c2c(F)cccc2F)no1 [Example A11] |
| 0.5 to 5 |  | CC1(C)[C@H](c2ccc(S(N)(=O)=O)cc2)[C@H]1c1nc(-c2ccccc2F)no1 [Example A12] |
| 0.5 to 5 |  | CC1(C)[C@H](c2ccc(S(N)(=O)=O)cc2)[C@H]1c1nc(-c2ccccc2C(F)(F)F)no1 [Example A13] |
| 0.5 to 5 |  | CC1(C)[C@H](c2ccc(S(N)(=O)=O)cc2)[C@H]1c1nc(-c2cccc(Br)c2)no1 [Example A14] |
| 0.5 to 5 | 1.5 | CC(C)c1noc([C@@H]2[C@@H](c3ccc(S(N)(=O)=O)cc3)C2(C)C)n1 [Example B1] |
| 0.5 to 5 |  | CC1(C)[C@H](c2ccc(S(N)(=O)=O)cc2)[C@H]1c1nc(-c2cncc(F)c2)no1 [Example B2] |
| 5 to 50 | 8.7 | CC1(C)[C@H](c2ccc(S(N)(=O)=O)cc2)[C@H]1c1nc(C2CCC2)no1 [Example B3] |
| 0.5 to 5 |  | NS(=O)(=O)c1ccc([C@H]2C[C@@H]2c2nc(C3CCCCC3)no2)cc1 [Example B4] |
| 5 to 50 |  | NS(=O)(=O)c1ccc([C@H]2C[C@@H]2c2nc(-c3cncc(F)c3)no2)cc1 [Example B5] |
| 5 to 50 | 7.7 | Cc1ncccc1-c1noc([C@H]2C[C@@H]2c2ccc(S(N)(=O)=O)cc2)n1 [Example B6] |
| 0.5 to 5 | 2.8 | CC1(C)[C@H](c2ccc(S(N)(=O)=O)cc2)[C@H]1c1nc(-c2cncc(C(F)(F)F)c2)no1 [Example B7] |
| 0.5 to 5 |  | CC1(C)[C@H](c2ccc(S(N)(=O)=O)cc2)[C@H]1c1nc(C2CC(F)(F)C2)no1 [Example B8] |
| 0.5 to 5 | 1 | CC1(C)[C@H](c2ccc(S(N)(=O)=O)cc2)[C@H]1c1nc(C2CCCC2)no1 [Example B9] |
